According to patent publication US20230301896A1, “COMPOSITION FOR PENETRATING SUGAR BASED DELIVERY SYSTEM” (Evonik Operations GmbH, priority 2015, published 2023):

How the values were obtained:
[1] = HPLC determination of retinol (stabilization of active ingredient); assay type: physicochemical; conditions: UV 323 nm
Description: Active ingredients can be detected by any known analytical test method which can be e.g. HPLC, GG, ESR depending on the composition. This effect depends on the active lipophilic ingredient encapsulated.
Test Method used: HPLC Chromatography
Instrumentation: Liquid Chromatograph Agilent 1100 with autosampler, UV-detector
Column: Reprosil C-18-AQ; 5μ, 200*4 mm (Fa. Dr. Maisch) with precolumn: • Column Temp.: 20° C. • Mobile Phase: Acetonitrile/THF/Water (54/38/8 v/v/v) • Flow Rate: 1.0 ml/min • Gradient Program: Isocratic • Detection: UV-Detector; 323 nm • Injection Volume: 5 μl; Autosampler • Retention Time: 1.6 min
Reagents: • Acetonitrile (Roth, gradient grade) • THF (Roth, gradient grade) • 2-Propanol (Roth, gradient grade) • Water, twice-distilled • Retinol 50C (BASF, Cosmetic Quality, approx, 50%)—standard • (If not stated otherwise the reagents are used as purchased without any further purification)

Inner forearm = assay: Reduction of irritation potential, 5 D Intravitaltomography (taum); assay type: in vivo, human; conditions: 0.3% of retinol occlusively applied onto inner forearm; taum at start point and 48 h after application
Source text: Reduction of Irritation can be detected by any known analytical test method which can be e.g. 5D IVT, ELISA, Patch Test. HET Cam Test using skin, skin models, cells. This effect depends on the active lipophilic ingredient encapsulated.
Data which measured in accordance with the method as described in “From Morphology To Biochemical State—Intravital Multiphoton Fluorescence Lifetime Imaging Of Inflamed Human Skin”, by Volker Huck et al. published in www.nature.com/scientificreports, 23 Mar. 2016; the disclosure of which is hereby incorporated by reference. Referring now to FIGS. 3 and 4, FIGS. 3 and 4 illustrate the Taum measurement. The delivery system of the invention can achieve Tau values of about 100 ps to about 3000 ps, about 300 ps to about 2500 ps and in some cases about 500 ps to about 1500 ps in the Stratum granulosum and Stratum spinosum.

stabilization of Retinol (HPLC) [1]: degrades
SMILES: CC1=C(/C=C/C(C)=C/C=C/C(C)=C/CO)C(C)(C)CCC1 [retinol, Retinol]
irritation potential (Inner forearm): significantly higher
